Experiment: Stability test: half-life for deprotection in 0.05N HCl/MeOH (Table 1)
Type: physicochemical
Conditions: 0.05N HCl/MeOH (1:2), 30 mmolar solution, 20° C., pH 2.0; values +/- 10%
Protocol: (§1) To test the stability, the following uridine derivatives were incubated in 0.05N HCl/MeOH (1:2), 30 mmolar solution, 20° C., pH 2.0 (Table 1) or in 80% acetic acid, 30 mmolar solution, 20° C. (Table 2) and the half-life for deprotection was determined: […]

SMILES | t1/2 (half-life for deprotection)
COc1ccc(COC(C)O[C@@H]2[C@H](O)[C@@H](CO)O[C@H]2n2ccc(=O)[nH]c2=O)cc1 (stereo partly shown) | 1.22 h
COc1ccc(COC(C)O[C@@H]2[C@H](O)[C@@H](CO)O[C@H]2n2ccc(=O)[nH]c2=O)cc1OC (stereo partly shown) | 1.37 h
CC(OCCc1ccc([N+](=O)[O-])cc1)O[C@@H]1[C@H](O)[C@@H](CO)O[C@H]1n1ccc(=O)[nH]c1=O (stereo partly shown) | 3.7 h
CC(OCCSc1ccccc1)O[C@@H]1[C@H](O)[C@@H](CO)O[C@H]1n1ccc(=O)[nH]c1=O (stereo partly shown) | 3.83 h
CC(OCCN1C(=O)c2ccccc2C1=O)O[C@@H]1[C@H](O)[C@@H](CO)O[C@H]1n1ccc(=O)[nH]c1=O (stereo partly shown) | 14 h
CC(OCCc1ccc([N+](=O)[O-])cc1[N+](=O)[O-])O[C@@H]1[C@H](O)[C@@H](CO)O[C@H]1n1ccc(=O)[nH]c1=O (stereo partly shown) | approx. 1200 min
CC(OCc1ccc([N+](=O)[O-])cc1)O[C@@H]1[C@H](O)[C@@H](CO)O[C@H]1n1ccc(=O)[nH]c1=O (stereo partly shown) | 32.67 h
CC(OCc1ccccc1[N+](=O)[O-])O[C@@H]1[C@H](O)[C@@H](CO)O[C@H]1n1ccc(=O)[nH]c1=O (stereo partly shown) | 37.33 h
CC(OCCS(C)(=O)=O)O[C@@H]1[C@H](O)[C@@H](CO)O[C@H]1n1ccc(=O)[nH]c1=O (stereo partly shown) | 52 h
CC(OCCS(=O)(=O)c1ccccc1)O[C@@H]1[C@H](O)[C@@H](CO)O[C@H]1n1ccc(=O)[nH]c1=O (stereo partly shown) | 52 h
CC(OCc1ccc([N+](=O)[O-])cc1[N+](=O)[O-])O[C@@H]1[C@H](O)[C@@H](CO)O[C@H]1n1ccc(=O)[nH]c1=O (stereo partly shown) | approx. 14000 min
CC(OCCC#N)O[C@@H]1[C@H](O)[C@@H](CO)O[C@H]1n1ccc(=O)[nH]c1=O (stereo partly shown) [CH2 CH2CN] | 56.17 h
CC(OCCCl)O[C@@H]1[C@H](O)[C@@H](CO)O[C@H]1n1ccc(=O)[nH]c1=O (stereo partly shown) [CH2CH2Cl] | 10.3 h
CC(OCC[N+](=O)[O-])O[C@@H]1[C@H](O)[C@@H](CO)O[C@H]1n1ccc(=O)[nH]c1=O (stereo partly shown) [CH2CH2NO2] | 67.17 h
CC(OCc1ccccc1)O[C@@H]1[C@H](O)[C@@H](CO)O[C@H]1n1ccc(=O)[nH]c1=O (stereo partly shown) [drawing 52] | 2.92 h

Experiment: Stability test: half-life for deprotection in 80% acetic acid (Table 2)
Type: physicochemical
Conditions: 30 mmolar solution, 20° C., Values +/- 5%
Protocol: as §1

SMILES | t1/2 (half-life for deprotection)
CC(OCc1ccc(O)cc1)O[C@@H]1[C@H](O)[C@@H](CO)O[C@H]1n1ccc(=O)[nH]c1=O (stereo partly shown) | 0.35 h
CC(OCc1ccc(OC(=O)OCCc2ccc([N+](=O)[O-])cc2)cc1)O[C@@H]1[C@H](O)[C@@H](CO)O[C@H]1n1ccc(=O)[nH]c1=O (stereo partly shown) | 1.73 h
CC(OCc1ccc(O)c(F)c1)O[C@@H]1[C@H](O)[C@@H](CO)O[C@H]1n1ccc(=O)[nH]c1=O (stereo partly shown) | 0.8 h
CC(OCc1ccc(OC(=O)OCCc2ccc([N+](=O)[O-])cc2)c(F)c1)O[C@@H]1[C@H](O)[C@@H](CO)O[C@H]1n1ccc(=O)[nH]c1=O (stereo partly shown) | 5.08 h
CC(OCc1ccc(O)c(Cl)c1)O[C@@H]1[C@H](O)[C@@H](CO)O[C@H]1n1ccc(=O)[nH]c1=O (stereo partly shown) | 0.917 h
CC(OCc1cc(Cl)c(O)cc1Cl)O[C@@H]1[C@H](O)[C@@H](CO)O[C@H]1n1ccc(=O)[nH]c1=O (stereo partly shown) | 4.17 h
CC(OCc1cc(Cl)c(OC(=O)OCCc2ccc([N+](=O)[O-])cc2)cc1Cl)O[C@@H]1[C@H](O)[C@@H](CO)O[C@H]1n1ccc(=O)[nH]c1=O (stereo partly shown) | 21.67 h
CC(OCc1cc(Cl)c(OC(=O)C(C)(C)C)cc1Cl)O[C@@H]1[C@H](O)[C@@H](CO)O[C@H]1n1ccc(=O)[nH]c1=O (stereo partly shown) | 22.58 h
CC(OCc1c(Cl)cccc1Cl)O[C@@H]1[C@H](O)[C@@H](CO)O[C@H]1n1ccc(=O)[nH]c1=O (stereo partly shown) | 18.8 h
CC(OCc1ccccc1)O[C@@H]1[C@H](O)[C@@H](CO)O[C@H]1n1ccc(=O)[nH]c1=O (stereo partly shown) [drawing 64] | 1.1 h
